Test results reported in patent publication US11642345B2, “Replication stress pathway agent compositions and methods for treating cancer” (Boundless Bio, Inc., priority 2020, dated 2023).

Legend:
[1] = system: COLO320-DM and SNU16 (ecDNA+), COLO320-HSR and DLD1 (ecDNA−) cell models; assay: In vitro soft agar colony formation assay, 21 days, RNRi (FIG. 40A); assay type: cell-based; conditions: treated once on day of seeding, increasing doses
Procedure: (§1) FIGS. 40A-40C show inhibition of RNR blocks nucleotide synthesis causing enhanced replication stress and reduced cellular transformation in ecDNA+ compared to ecDNA-tumor cells. […] In FIG. 40A, to evaluate cellular transformation, an in vitro soft agar colony formation assay was conducted wherein ecDNA bearing COLO320-DM and SNU16 cell models were grown alongside ecDNA− cell models, COLO320-HSR and DLD1 in this 3D-format assay for 21 days. Cells were treated individually only once on the day of the seeding of cells at increasing doses of RNRi, (5-chloro-2-[[rac-(1S,2R)-2-(6-fluoro-2,3-dimethyl-phenyl)-1-(2-oxo-3H-1,3,4-oxadiazol-5-yl)propyl]sulfamoyl]benzamide). In FIG. 40B, to determine change in ecDNA carrying MYC amplified oncogene counts, ecDNA+ (COLO320-DM) cells were treated with an IC-90 dose (10 uM) of RNRi for 21 days. Cells in log-growth phase were arrested in metaphase. FISH (Florescent in-situ hybridization) for MYC oncogene was performed on the fixed metaphase spreads and the nuclei were counterstained with DAPI. […] Cells were lysed and immunoblotted with pRPA32-S33 antibody as a marker of ssDNA-damage induced replication stress.

[2] = system: ecDNA+ (COLO320-DM) cells; assay: IC-90 and IC-70 doses of RNRi in COLO320-DM cells; assay type: cell-based
Procedure: as §1

[3] = system: ecDNA+ (Colo320 DM) and ecDNA− (Colo320 HSR) cells; assay: p-RPA32 S4/S8 foci by immunofluorescence after CHK1i (FIG. 41B); assay type: cell-based; conditions: 16 hr treatment
Excerpt: Increased Chk1 phosphorylation at S345 indicates higher activation of RS-activated ATR kinase, while increased gH2AX indicates increased damage resulting from DNA double stranded breaks triggered by replication stress. […] Hyperphosphorylated form of Replication Protein A (RPA) 32 Ser4/Ser8 was detected by immunofluorescence in fixed ecDNA+ (Colo320 DM) and ecDNA− (Colo320 HSR) cell line models that were previously treated with CHK1 i GDC-0575 for 16 hr. Representative bar graph represents % total nuclei positive for P-RPA32 S4/S8 foci (minimum threshold of >3 puncta/nuclei) detected by immunofluorescence in ecDNA+ and ecDNA− cells.

[4] = system: HeLa ecDNA+ and HeLa ecDNA− cells; assay: HeLa ecDNA+ vs ecDNA− response to Chk1 inhibition, RS and DNA damage markers (FIG. 41A); assay type: cell-based
HeLa cells = assay: HeLa cell confluence by high-content microscopy over three weeks, with or without 100 nM methotrexate; assay type: cell-based; conditions: three weeks
Procedure: Cell confluence was measured via high-content microscopy over the time course.
HeLa cells were treated with a WEE1 inhibitor, 0.01-0.3 μM adavosertib alone, with 1 nM-100 nM PD0166285, with 100 nM methotrexate alone, or with a combination of 0.01-0.3 μM adavosertib and 100 nM methotrexate or a combination of 1 nM-100 nM PD0166285 and 100 nM methotrexate over the course of three weeks. Cell confluence was measured via high-content microscopy over the time course.
HeLa cells were treated with a PARG inhibitor, 3-100 μM PD00017273 with (FIG. 35 top panel) or without (FIG. 35 bottom panel) 100 nM methotrexate over the course of 3 weeks. Cell confluence was measured via high-content microscopy over the time course.
Cell confluence was measured via high-content microscopy over the time course. […] However.

[5] = system: MYC, FGFR2, and EGFR copy number in SNU16 cells; assay: qPCR gene copy number in SNU16 cells during infigratinib treatment; assay type: cell-based, human; conditions: 1 μM infigratinib for 9 weeks
Procedure: The SNU16 cells were treated with 1 μM of an FGFR inhibitor (infigratinib) for 9 weeks. DNA was collected at days 3, 14, 28, 42, 56, and 63 days and qPCR was performed to assess copy number for MYC. FGFR2, and EGFR at each time point. Cells after 8 weeks of infigratinib treatment and untreated SNU16 control cells were also assayed by FISH for EGFR.
To assess ecDNA copy number dynamics throughout the development of infigratinib resistance, DNA was extracted using the QIAamp DNA Mini Kit (Qiagen) and the DNA was amplified via quantitative PCR (qPCR) using Taqman copy number assays (ThermoFisher). The EGFR Taqman assay ID was Hs00997424_cn; GFGR2 assay ID was Hs05182482_cn; and the MYC assay ID was Hs03660964_cn. The cycle threshold values were normalized to the internal RNase P Taqman assay, and gene copy number was calculated using the ΔΔCt method and the DNA from a diploid control cell line, DLD1.
Methods: SNU16 control cells were cultured in RPMI-1640 media with 10% FBS under standard tissue culture conditions at 37° C. and with 5% CO2. Low passage control cells were treated with 1 μM infigratinib over the course of 9 weeks. Cells were passaged as needed and media and infigratinib were replaced at least once per week. DNA was collected at day 3 and weeks 2, 4, 6, 8 and 9. Cells in metaphase were collected at 8 weeks from both control and infigratinib-resistant cells.

SNU16 cells [6] = assay: 5 day viability assay, CellTiter-Glo 2.0; assay type: cell-based; conditions: Homo sapiens, SNU-16
KATOIII cells [7] = assay: Long-term growth curves under targeted inhibitor; assay type: cell-based; conditions: infigratinib at EC90 (1 uM), 11 weeks
Procedure: (§2) To measure growth kinetics over time, each cell line was treated once or twice per week with targeted inhibitor against the amplified oncogene.

[8] = system: infigratinib-resistant SNU16 cells; assay: Secondary resistance, cell growth of infigratinib-resistant SNU16 cells over 5 weeks; assay type: cell-based, human; conditions: FIG. 26, 1 uM infigratinib, 1 uM erlotinib, 10 nM gemcitabine
Procedure: The infigratinib-resistant SNU16 cells (generated as shown in FIG. 25) were subdivided into six groups and each group of 1×10^6 cells was subjected to treatment with 1 uM infigratinib, 1 uM erlotinib, 10 nM gemcitabine, or 1 uM erlotinib+10 nM gemcitabine and the cell growth was recorded over 5 weeks. Each treatment arm was terminated once the cell number reached 5×10^6.

KATOIII cells [9] = assay: 5 day viability assay, CellTiter-Glo 2.0; assay type: cell-based; conditions: Homo sapiens, KATO III
SNU16 cells [10] = assay: Long-term growth curves under targeted inhibitor; assay type: cell-based, human; conditions: infigratinib at EC90 (1 uM), 6 weeks
Procedure: as §2

SNU16 cells [11] = assay: Long-term cell growth / resistance development in SNU16 cells; assay type: cell-based, human; conditions: for cell growth / resistance formation: 9 weeks
Procedure: Each treatment arm was terminated once the cell number reached 5×10^6.
SNU16 cells were subdivided into five groups and each group of 1×10^6 cells was subjected to treatment with 1 μM infigratinib, 1 μM erlotinib, 1 μM infigratinib and 1 μM erlotinib, 0.1 μM adavosertib and cell growth was recorded over 9 weeks.
SNU16 cells were subdivided into five groups and each group of 1×10^6 cells was subjected to treatment with infigratinib, erlotinib, PD00017273, infigratinib and erlotinib, or infigratinib and PD00017273 and cell growth was recorded over 9 weeks.
SNU16 (CRL-5974) cell line was purchased from ATCC. SNU16 cells were grown in RPMI 1640 medium (Fisher Scientific) with 10% FBS and 100 U/ml penicillin/streptomycin (Fisher Scientific). For the resistance experiments, SNU16 cells were plated at 2 million per T75 flask and were treated with either 1 μM infigratinib (Selleck Chemicals), 1 μM erlotinib (Selleck Chemicals), 10 nM gemcitabine (Sigma Aldrich), or a combination. The media was changed and fresh drug was added at least once per week. The cells were counted over the span of several weeks to measure cell growth.

Calu-3 cells [12] = assay: Long-term growth curves under targeted inhibitor; assay type: cell-based; conditions: Calu3, ERBB2 Chromosomal; 2× then 4× the relative EC50, 6 weeks
Procedure: as §2

SKBR3 cells [13] = assay: Long-term growth curves under targeted inhibitor; assay type: cell-based; conditions: SKBP3, ERBB2 Chromosomal; 2× then 4× the relative EC50, 6 weeks
Procedure: as §2

Calu-3 cells [14] = assay: 5 day viability assay, CellTiter-Glo 2.0; assay type: cell-based; conditions: Homo sapiens, Calu3, ERBB2 amplification, Chromosomal, read-out: 3-5 day acute cytotoxicity EC50
Procedure: (§3) For these long-term growth curves, the EC50 of targeted therapy was first determined in short term 5 day viability assays. To determine the EC50 of irbinitinib, H2170 cells were plated at 3000 cell/well in a 96-well plate; SKBR3 and Calu-3 cells were plated at 3500 cells/well in a 96-well plate. All cells were dosed with irbinitinib continuously for 5 days (serial dilutions ranging from 12 nM to 1 uM) along with a DMSO control. EC50 curves were determined based on cell viability using CellTiter-Glo 2.0 reagent (Promega). […]

H2170 cells = assay: 5 day viability assay, CellTiter-Glo 2.0; assay type: cell-based; conditions: Homo sapiens, NCI-H2170
Procedure: as §3

SKBR3 cells [15] = assay: 5 day viability assay, CellTiter-Glo 2.0; assay type: cell-based; conditions: Homo sapiens, SK-BR-3; SKBP3, ERBB2 amplification, Chromosomal; read-out: 3-5 day acute cytotoxicity EC50
Procedure: as §3

In the case of Cc1ccc(F)c([C@@H](C)[C@H](NS(=O)(=O)c2ccc(Cl)cc2C(N)=O)c2n[nH]c(=O)o2)c1C (racemic) [5-chloro-2-[[rac-(1S,2R)-2-(6-fluoro-2,3-dimethyl-phenyl)-1-(2-oxo-3H-1,3,4-oxadiazol-5-yl)propyl]sulfamoyl]benzamide], the “cellular transformation, replication stress” value [1] is reported as “enhanced replication stress and reduced cellular transformation in ecDNA+ compared to ecDNA(−) tumor cells”, the IC-70 dose [2] is reported as 7 µM and the IC90 ([2]; Homo sapiens, COLO 320DM) is reported as 10000 nM.

With N[C@@H]1CCCN(c2c(Br)cnc3[nH]cc(NC(=O)C4CC4)c23)C1 [GDC-0575] the “pRPA levels (% total nuclei positive for P-RPA32 S4/S8 foci)” value [3] was “increases pRPA levels in ecDNA+ (DM) cells vs. matched ecDNA− (HSR) cells”, the “induction of markers of RS and DNA damage (Chk1 phosphorylation at S345, gH2AX)” value ([4]; 200 nM for 24 h) was “much stronger induction of markers of RS and DNA damage than ecDNA− cells” and the “sensitivity of HeLa ecDNA+ over HeLa ecDNA− cells” value ([4]; HeLa ecDNA+ grown in 1 uM methotrexate) was “increased sensitivity”. For the same compound, the “development of methotrexate resistance” value (HeLa cells; in combination with 100 nM methotrexate) was “prevented development of methotrexate resistance” and the “cell growth (cell confluence), agent alone” value (HeLa cells; 10 nM GDC-0575, 100 nM methotrexate, 300 nM-10 μM AZD6738) was “no effect on cell growth”.

For CCN1CCN(c2ccc(Nc3cc(N(C)C(=O)Nc4c(Cl)c(OC)cc(OC)c4Cl)ncn3)cc2)CC1 [infigratinib], the “copy number for MYC and FGFR2” value [5] was “remained relatively constant”, the “copy number of EGFR” value [5] was “increased” and the EC90 (SNU16 cells [6]; SNU16) was 1000 nM. For the same compound, the EC50 (SNU16 cells [6]; SNU16, ecDNA, read-out: 3-5 day acute cytotoxicity EC50) was 14 nM, the “Long-term culture growth properties” value (KATOIII cells [7]) was <1 viability >10 weeks and the “cell growth / development of secondary resistance” value [8] was “no effect on cell growth on its own”. The EC90 (KATOIII cells [9]) was 1000 nM, the EC50 (KATOIII cells [9]; Chromosomal, read-out: 3-5 day acute cytotoxicity EC50) was 13 nM and the “Long-term culture growth properties” value (SNU16 cells [10]) was “Near normal”. For the same compound, the “cell growth / development of primary resistance” value (SNU16 cells [11]; FIG. 25, 12 weeks, 1 uM infigratinib, 1 uM erlotinib, 10 nM gemcitabine) was “strongly suppressed cell growth for 5 weeks, after which cells developed resistance and grew rapidly”, the “cell growth / resistance formation” value (SNU16 cells [11]; FIG. 30, 1 μM infigratinib, 1 μM erlotinib, 0.1 μM adavosertib) was “transient growth suppression” and the “cell growth / resistance formation” value (SNU16 cells [11]; FIG. 34) was “transient growth suppression for approximately 3 weeks”.

With Cc1cc(Nc2ncnc3ccc(NC4=NC(C)(C)CO4)cc23)ccc1Oc1ccn2ncnc2c1 [irbinitinib] the “Long-term culture growth properties” value (Calu-3 cells [12]) was “Reduced proliferation”, the “Long-term culture growth properties” value (SKBR3 cells [13]) was <1% viability >6 weeks and the EC50 (Calu-3 cells [14]) was 414 nM. The EC90 (H2170 cells) was 500 nM, the EC50 (H2170 cells; H2170, ERBB2 amplification, ecDNA, read-out: 3-5 day acute cytotoxicity EC50) was 110 nM and the EC50 (SKBR3 cells [15]) was 43 nM.
